Literature values in US20200353086A1, “CONTROLLED-RELEASE FORMULATIONS” (CAMURUS AB, priority 2014, published 2020).
*1 amine or outer side, *2 acyl side, *3 side chain or, on linkers, in order; H or OH if unused. Where a SMILES comes first, the peptide text is derived from it. Side-chain parts run from the residue outwards. [ ]: non-standard residue; d: D form. The star is where a group is joined. Ethylenediamine = C(CN[*:2])N[*:1]; Hyp = O=C(O)[C@@H]1C[C@@H](O)CN1; Phg = N[C@H](C(=O)O)c1ccccc1; CO = O=C([*:1])[*:2]; Bn = c1ccc(C*)cc1

How the values were obtained:
[1] = test system: somatostatin receptors (SSTRs)
[2] = human, single subcutaneous dose

| Molecule | selectivity between somatostatin receptor subtypes [1] | terminal half-life (in vivo) | initial half-life following the peak [2] [h] | affinity for somatostatin receptor subtypes [1] | biological half-life (natural SST-14) |
| --- | --- | --- | --- | --- | --- |
| C[C@@H](O)[C@@H]1NC(=O)[C@H](CCCCN)NC(=O)[C@@H](Cc2c[nH]c3ccccc23)NC(=O)[C@H](Cc2ccccc2)NC(=O)[C@@H](NC(=O)[C@H](N)Cc2ccccc2)CSSC[C@@H](C(=O)N[C@H](CO)[C@@H](C)O)NC1=O [Octreotide, D-Phe-Cys-Phe-D-Trp-Lys-Thr-Cys-Thr-ol (2-7 disulphide bridge)] | high selectivity for SSTR2 and SSTRS | around 1.7 hours | – | – | – |
| NCCCC[C@@H]1NC(=O)[C@@H](Cc2c[nH]c3ccccc23)NC(=O)[C@H](c2ccccc2)NC(=O)[C@@H]2C[C@@H](OC(=O)NCCN)CN2C(=O)[C@H](Cc2ccccc2)NC(=O)[C@H](Cc2ccc(OCc3ccccc3)cc2)NC1=O [Pasireotide] (cyclo([Hyp]([CO-Ethylenediamine])[Phg][dW]KY(Bn)F)) | – | – | 2 to 3 | high affinity for somatostatin receptor subtypes sstr1,2,3 and sstr5 | – |
| Ala-Gly-Cys-Lys-Asn-Phe-Phe-Trp-Lys-Thr-Phe-Thr-Ser-Cys [SST-14] | – | – | – | equally high affinity | 1-3 minutes |
